Reference: US9474701B2, “Antimicrobial soaps containing carvacrol and methods of using same” (Hydromer, Inc., priority 2014, dated 2016)

Assays:
[1] = test system: gram negative/gram positive bacteria; assay: Synergistic effect of soap ingredients with/without Carvacrol; type: cell-based; settings: for Efficacy against gram negative/gram positive bacteria: bacterial growth inhibition, ingredients with/without Carvacrol; for Synergistic effect: synergism with the Carvacrol
Description: Main ingredients of NMP free V100, (2-Phenoxyethanol, Caprylyl glycol and Hexylene Glycol) were analyzed with/without Carvacrol.

[2] = test system: gram negative/gram positive bacteria; assay: Synergistic effect of soap ingredients with/without Oregano Oil; type: cell-based; settings: for Efficacy against gram negative/gram positive bacteria: inhibition, ingredients with/without Oregano Oil; for Synergistic effect: synergism with Oregano Oil
Description: Main ingredients of NMP free V100, 2-Phenoxyethanol, Caprylyl glycol and Hexylene Glycol were analyzed in the concentrations that they appear in the Hydromer Antiseptic Soap with/without Oregano Oil.

Compound | Efficacy against gram negative/gram positive bacteria [1] | Synergistic effect [1] | Efficacy against gram negative/gram positive bacteria [2] | Synergistic effect [2]
OCCOc1ccccc1 [0.035% 2-Phenoxyethanol, 2-Phenoxyethanol] | NO Inhibition | act synergistically | NO Inhibition | act synergistically
Cc1ccc(C(C)C)cc1O [0.2% Carvacrol, Carvacrol] | NO Inhibition | – | – | –
Hexylene Glycol [0.008% Hexylene Glycol] | NO Inhibition | – | NO Inhibition | –
CCCCCCC(O)CO (centres unmarked) [0.02% Caprylyl Glycol, Caprylyl Glycol] | NO Inhibition | act synergistically | NO Inhibition | act synergistically
